Laboratory results: ChEMBL document CHEMBL1132404, “2,4,6-triarylchalcogenopyrylium dyes related in structure to the antitumor agent AA1 as in vitro sensitizers for the photodynamic therapy of cancer” (J Med Chem, 1999)

Legend:
[1] = (§1) The rate of hydrolysis as a function of time; assay type: functional
[2] = Partition coefficient (logP); assay type: physicochemical; conditions: octanol/water
[3] = Inhibition of mitochondrial Cytochrome c Oxidase.; conditions: concentration not given here
R3230AC = assay: Cell viability was measured against R3230AC rat mammary adenocarcinoma cells at 10 uM concentration; assay type: functional
[4] = as §1; assay type: ADME

`CN(C)c1ccc(-c2cc(-c3ccc(N(C)C)cc3)[se+]c(-c3ccc(N(C)C)cc3)c2)cc1` gave a k1 [1] of 0.00024 s⁻¹, a k2 [1] of 1.7e-05 s⁻¹ and a logP [2] of 1.7. It also gave an inhibition [3] of 0.78%.

With `CN(C)c1ccc(-c2cc(-c3ccc(N(C)C)cc3)[te+]c(-c3ccc(N(C)C)cc3)c2)cc1.[Cl-]` the Cell viability (R3230AC) was ~75%, the k1 [1] was 0.00024 s⁻¹ and the k2 [1] was 1.1e-05 s⁻¹. For the same compound, the logP [2] was 2.3 and the inhibition [3] was 0.38%.

In the case of `CN(C)c1ccc(-c2cc(-c3ccc(N(C)C)cc3)[s+]c(-c3ccc(N(C)C)cc3)c2)cc1.[Cl-]`, the logP [2] is reported as 2.2, the inhibition [3] is reported as 0.82% and the k1 [4] is reported as 0.0001 s⁻¹. For the same compound, the k2 [4] was 0.000022 s⁻¹.
